target: T1, human IRAK4 (Homo sapiens, UniProt Q9NWZ3); test: IRAK4 MSA (Mobility-Shift Assay) at Km concentration of ATP; assay type: biochemical; details: GST-IRAK4 1 nM, ATP 37 μM (Km); read-out: IC50 for inhibiting human IRAK4 activity
T1 construct: purchased Cama (so in the source)
T1 sequence (Q9NWZ3 1-460): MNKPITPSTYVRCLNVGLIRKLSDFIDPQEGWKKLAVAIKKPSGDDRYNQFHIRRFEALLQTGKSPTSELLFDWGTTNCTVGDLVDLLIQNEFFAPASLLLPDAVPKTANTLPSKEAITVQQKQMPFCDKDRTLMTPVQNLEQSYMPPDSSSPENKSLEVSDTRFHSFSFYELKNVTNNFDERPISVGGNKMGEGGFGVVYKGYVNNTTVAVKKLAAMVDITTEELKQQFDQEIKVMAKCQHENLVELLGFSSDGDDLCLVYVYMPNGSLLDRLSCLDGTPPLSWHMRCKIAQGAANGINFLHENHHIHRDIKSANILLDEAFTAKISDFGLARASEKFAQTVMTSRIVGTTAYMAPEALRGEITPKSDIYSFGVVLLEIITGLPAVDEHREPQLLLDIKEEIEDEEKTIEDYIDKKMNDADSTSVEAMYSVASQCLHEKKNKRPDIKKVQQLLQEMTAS
Experimental: A recombinant fusion protein of N-terminal GST (glutathione-S-transferase) and human IRAK4 was used as enzyme (GST-IRAK4, kinase IRAK4 (Cama, CAT No. 09-145)) at a final concentration of 1 nM; ATP (Sigma. CAT No. A7699-1G) was at a final concentration of 37 μM; • the substrates used for the kinase reaction were 5-FAM (5-carboxyfluorescein)-labeled polypeptide (5-FAM-[…]-COOH) and substrate peptide FAM-P8 (GL Biochem, CAT No. 112396) at final concentrations of 5 μM.
In this assay, 500 μM stock solutions of the compounds were prepared in 100% DMSO, and serially 4-fold diluted to the 10th concentration gradient with 100% DMSO, followed by a 10-fold dilution in the compound buffer (50 mM HEPES, pH 7.5, 0.00015% Brij-35) to give intermediate dilutions of the compounds at a final concentration of 10 μM−0.04 nM containing 10% DMSO. 5 μL of the intermediate dilution was transferred into a black 384-well plate.
IRAK4 was diluted to 2.5 nM in the kinase buffer (50 mM HEPES, pH 7.5, 0.00015% Brij-35, 2 mM DTT). 10 μL of the IRAK4 dilution was transferred to the 384-well plate and co-incubated with the compound for 10-15 min.
The substrate and ATP were diluted to 12.5 μM and 92.5 μM with reaction buffer (50 mM HEPES, pH 7.5, 0.00015% Brij-35, 10 mM MgCl2), respectively. 10 μL of the dilution was transferred to a 384-well plate and incubated at 28° C. for 1 h. The reaction was terminated by adding 25 μL of 50 mM EDTA to the 384-well plate.
The inhibition rate of IRAK4 by the compounds was calculated by measuring the rate of phosphorylated substrate using a Caliper EZ Reader (PerkinElmer) and the IC50 was calculated by XL-fit software. […] In particular, some exemplary compound activity values are as follows: […]

| Compound | IC50 [nM] |
| --- | --- |
| COc1cc2nn([C@H]3CC[C@](C)(O)CC3)cc2cc1NC(=O)c1cccc(C2CC2)[n+]1[O-] [Compound 002, 2-cyclopropyl-6-((2-((1r,4r)-4-hydroxy-4-methylcyclohexyl)-6-methoxy-2H-indazol-5-yl)carbamoyl) Pyridine 1-oxide] | 3.7 |
| Cc1cccc(C(=O)Nc2cc3cn([C@H]4CC[C@](C)(O)CC4)nc3cc2N(C)C)[n+]1[O-] [Compound 010, 2-((6-(dimethylamino)-2-((1r,4r)-4-hydroxy-4-methylcyclohexyl)-2H-indazol-5-yl)carbamoyl)-6-methylpyridine 1-oxide] | 11 |
| COc1cc2nn([C@H]3CC[C@H](O)CC3)cc2cc1NC(=O)c1cccc(C(C)C)[n+]1[O-] [Compound 015, 2-((2-((1r,4r)-4-hydroxycyclohexyl)-6-methoxy-2H-indazol-5-yl)carbamoyl)-6-isopropylpyridine 1-oxide] | 5.4 |
| Cc1cccc(C(=O)Nc2cc3cn([C@H]4CC[C@H](O)CC4)nc3cc2OCC2CC2)[n+]1[O-] [Compound 019, 2-((6-(cyclopropylmethoxy)-2-((1r,4r)-4-hydroxycyclohexyl)-2H-indazol-5-yl)carbamoyl)-6-methylpyridine 1-oxide] | 8.1 |
| COc1cc2nn([C@H]3CC[C@@](O)(C4CC4)CC3)cc2cc1NC(=O)c1cccc(C)[n+]1[O-] [Compound 025, 2-((2-((1r,4r)-4-cyclopropyl-4-hydroxycyclohexyl)-6-methoxy-2H-indazol-5-yl)carbamoyl)-6-methylpyridine 1-oxide] | 13 |
| COc1cc2nn([C@H]3CC[C@@](O)(CC#N)CC3)cc2cc1NC(=O)c1cccc(C)[n+]1[O-] [Compound 175, 2-((2-((1r,4r)-4-(cyanomethyl)-4-hydroxycyclohexyl)-6-methoxy-2H-indazol-5-yl)carbamoyl)-6-methylpyridine 1-oxide] | 7.1 |
| COc1cc2nn([C@H]3CC[C@@](O)(CC#N)CC3)cc2cc1NC(=O)c1cccc(C2CC2)[n+]1[O-] [Compound 176, 2-((2-((1r,4r)-4-(cyanomethyl)-4-hydroxycyclohexyl)-6-methoxy-2H-indazol-5-yl)carbamoyl)-6-cyclopropylpyridine 1-oxide] | 4.3 |
| C#C[C@]1(O)CC[C@H](n2cc3cc(NC(=O)c4cccc(C)[n+]4[O-])c(OC)cc3n2)CC1 [Compound 187, 2-((2-((1r,4r)-4-ethynyl-4-hydroxycyclohexyl)-6-methoxy-2H-indazol-5-yl)carbamoyl)-6-methylpyridine 1-oxide] | 9.2 |

Further lines, results first:

| IC50 [nM] | Compound |
| --- | --- |
| 8.3 | COc1cc2nn([C@H]3CC[C@@H](O)CC3)cc2cc1NC(=O)c1cccc(C2CC2)[n+]1[O-] [Compound 218, 2-cyclopropyl-6-((2-((1s,4s)-4-hydroxycyclohexyl)-6-methoxy-2H-indazol-5-yl)carbamoyl)pyridine 1-oxide] |
| 14 | CCOc1cc2nn([C@H]3CC[C@@H](O)CC3)cc2cc1NC(=O)c1cccc(C)[n+]1[O-] [Compound 220, 2-((6-ethoxy-2-((1s,4s)-4-hydroxycyclohexyl)-2H-indazol-5-yl)carbamoyl)-6-methylpyridine 1-oxide] |
| 28 | COc1cc2nn(C3CCCC3)cc2cc1NC(=O)c1cccc(C)[n+]1[O-] [Compound 284, 2-((2-cyclopentyl-6-methoxy-2H-indazol-5-yl)carbamoyl)-6-methylpyridine 1-oxide] |
| 5.9 | COc1cc2nn(C3CCCCC3)cc2cc1NC(=O)c1cccc(C)[n+]1[O-] [Compound 285, 2-((2-cyclohexyl-6-methoxy-2H-indazol-5-yl)carbamoyl)-6-methylpyridine 1-oxide] |
| 14 | COc1cc2nn(C3CCC(F)(F)CC3)cc2cc1NC(=O)c1cccc(C)[n+]1[O-] [Compound 286, 2-((2-(4,4-difluorocyclohexyl)-6-methoxy-2H-indazol-5-yl)carbamoyl)-6-methylpyridine 1-oxide] |
| 13 | Cc1cccc(C(=O)Nc2cc3cn([C@H]4CC[C@@](C)(O)CC4)nc3cc2N(C)C)[n+]1[O-] [Compound 287, 2-((6-(dimethylamino)-2-((1s,4s)-4-hydroxy-4-methylcyclohexyl)-2H-indazol-5-yl)carbamoyl)-6-methylpyridine 1-oxide] |
| 13 | COc1cc2nn([C@H]3CC[C@@H](O)CC3)cc2cc1NC(=O)c1cccc(C(C)C)[n+]1[O-] [Compound 288, 2-((2-((1s,4s)-4-hydroxycyclohexyl)-6-methoxy-2H-indazol-5-yl)carbamoyl)-6-isopropylpyridine 1-oxide] |
| 1.7 | COc1cc2nn([C@H]3CC[C@](C)(O)CC3)cc2cc1NC(=O)c1cccc(NC2CC2)[n+]1[O-] [Compound 289, 2-(cyclopropylamino)-6-((2-((1r,4r)-4-hydroxy-4-methylcyclohexyl)-6-methoxy-2H-indazol-5-yl)carbamoyl)pyridine 1-oxide] |
| 14 | COc1cc2nn([C@H]3CC[C@](C)(C#N)CC3)cc2cc1NC(=O)c1cccc(C)[n+]1[O-] [Compound 291, 2-((2-((1r,4r)-4-cyano-4-methylcyclohexyl)-6-methoxy-2H-indazol-5-yl)carbamoyl)-6-methylpyridine 1-oxide] |
| 14 | Cc1cccc(C(=O)Nc2cc3cn([C@H]4CC[C@@H](O)CC4)nc3cc2OCC2CC2)[n+]1[O-] [Compound 292, 2-((6-(cyclopropylmethoxy)-2-((1s,4s)-4-hydroxycyclohexyl)-2H-indazol-5-yl)carbamoyl)-6-methylpyridine 1-oxide] |
| 30 | COc1cc2nn([C@H]3CC[C@](C)(O)CC3)cc2cc1NC(=O)c1cccc(C)n1 [Compound B, N-(2-((1r,4r)-4-hydroxy-4-methylcyclohexyl)-6-methoxy-2H-indazol-5-yl)-6-methylpicolinamide, reference compound] |
